The experiment concerns C3H10 T1/2 cells. The experiment is described as follows: Adipocyte differentiation / automated determination of lipid accumulation in adipocytes. Format: cell-based. Particulars: Mus musculus, C3H 10T1/2, 168 h, 50 micromolar chicoric acid, differentiated C3H10 T1/2 adipocytes, 7 days in DM-Supplemented (200nM Insulin, 10µM Rosiglitazone). As to the method:
C3H10 T1/2 cells were seeded on Collagen Type I coated 24-well plates at a cell density of 3.8x10^4 cells/mL in Differentiation Base medium (DM-Base), containing DMEM without Phenol Red, supplemented with 10% FCS, 4mM L-Glutamine and 1% Pen/Strep (v/v) at 37° C in an incubator with 5% CO2 atmosphere and 85%-90% relative humidity over 72hours. After this pre-incubation, DM-Base is replaced by DM-Supplemented, containing DM-Base plus 200nM Insulin, plus 10µM Rosiglitazone. Test compounds (e.g.: chicoric acid) were added in DM-Supplemented, and kept in culture for 7 consecutive days. Each experiment was performed in triplicates. Every second day medium and compounds were renewed.
Cells were fixed by adding 1mL of 60% 2-Propanot in PBS to each well and incubated for 1.5h at 4°C. The cells were then twice washed with 1mL PBS/well. […]
Lipid droplets were quantified with the Cellomics® Array Scan® VTI HCS Reader. Fat droplets were detected with the provided SpotDetector® Bio-Application. The fluorescent dye, BODIPY® 493/503, was used to visualise and quantify fat droplets (number, area, intensity) in differentiated C3H10 T1/2 adipocytes. […] Channel one (Ch1) applies the XF93-Hoechst filter and is the focus channel in which objects (nuclei) are identified, whereas the spots (fat droplets) are detected in channel two (Ch2) using a XF93-FITC filter.

Where two headings read alike, the source gives them in different places.

Turning to `O=C(/C=C/c1ccc(O)c(O)c1)O[C@H](C(=O)O)[C@H](OC(=O)/C=C/c1ccc(O)c(O)c1)C(=O)O` (stereo in doubt) [chicoric acid, Chicoric acid], the inhibition at 50 µM came to 69% (read-out: decrease in the average number of lipid droplets per adipocyte) and 42% (read-out: decrease in the average size of the lipid droplets in adipocytes).

These data come from patent EP2848286A1, “Cosmetic composition comprising chicoric acid” (DSM IP Assets B.V., priority 2013, dated 2015).
